Test results from ChEMBL document CHEMBL1201862, “PubChem BioAssay data set” (2004).
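Each compound was tested at five concentrations against cells in 96-well plates for 48 hours. Abbreviation: GI50, concentration required for 50% inhibition of growth.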 Activity calls are given as the source filed them. Rule as the data show it: active = GI50 up to about 1.1 µM and inactive = higher.

Legend:
Assay in all cases: growth of human tumour cells (NCI), 48 h
COLO 205 = test system: COLO 205
HCC 2998 = test system: HCC 2998
HT-29 = test system: HT-29
IGROV-1 = test system: IGROV-1
LOX IMVI = test system: LOX IMVI
Malme-3M = test system: Malme-3M
NCI-H460 = test system: NCI-H460
OVCAR-5 = test system: OVCAR-5
OVCAR-8 = test system: OVCAR-8
SF-268 = test system: SF-268
SF-539 = test system: SF-539
SK-MEL-28 = test system: SK-MEL-28
SN12C = test system: SN12C
SW-620 = test system: SW-620
TK-10 = test system: TK-10
UACC-257 = test system: UACC-257
UO-31 = test system: UO-31
U-251 = test system: U-251

Compound | GI50 (COLO 205) | GI50 (HCC 2998) | GI50 (HT-29) | GI50 (IGROV-1) | GI50 (LOX IMVI) | GI50 (Malme-3M) | GI50 (NCI-H460) | GI50 (OVCAR-5) | GI50 (OVCAR-8) | GI50 (SF-268) | GI50 (SF-539) | GI50 (SK-MEL-28) | GI50 (SN12C) | GI50 (SW-620) | GI50 (TK-10) | GI50 (UACC-257) | GI50 (UO-31) | GI50 (U-251)
CC1CC(c2cccc3c2OCO3)=Nc2ccccc2S1 (stereo not given) | > 100 µM (inactive) | > 100 µM (inactive) | > 100 µM (inactive) | > 100 µM (inactive) | > 100 µM (inactive) | > 100 µM (inactive) | > 100 µM (inactive) | > 100 µM (inactive) | > 100 µM (inactive) | > 100 µM (inactive) | > 100 µM (inactive) | > 100 µM (inactive) | > 100 µM (inactive) | > 100 µM (inactive) | > 100 µM (inactive) | > 100 µM (inactive) | > 100 µM (inactive) | 
CC1(C)CCC[C@@]2(C)C1CCC1(C)C(CCc3ccoc3)/C(=C/OS(=O)(=O)O)CCC12 (stereo not given in full) | 54.6 µM (inactive) | > 100 µM (inactive) | 40.9 µM (inactive) | > 100 µM (inactive) | > 100 µM (inactive) | > 100 µM (inactive) | > 100 µM (inactive) | > 100 µM (inactive) | > 100 µM (inactive) | > 100 µM (inactive) | > 100 µM (inactive) | 58.7 µM (inactive) | > 100 µM (inactive) | 54.3 µM (inactive) | > 100 µM (inactive) | > 100 µM (inactive) | 72.3 µM (inactive) | 57.5 µM (inactive)
O=C1C(Br)=C[C@H]2C3C=CC(Br)(C3=O)[C@@H]12 (stereo not given in full) | 9.75 µM (inactive) | 13.3 µM (inactive) | 10.5 µM (inactive) | 9.62 µM (inactive) |  | 13.2 µM (inactive) |  | 15.6 µM (inactive) | 12.5 µM (inactive) | 12.9 µM (inactive) | 13.3 µM (inactive) | 12.6 µM (inactive) | 13.2 µM (inactive) | 9.18 µM (inactive) |  | 12.2 µM (inactive) | 16.7 µM (inactive) | 13.8 µM (inactive)
COc1cc(/C=C(\C#N)C(=O)c2ccccc2)ccc1OCc1ccccc1 | > 100 µM (inactive) | > 100 µM (inactive) |  | > 100 µM (inactive) | > 100 µM (inactive) |  |  | > 100 µM (inactive) | > 100 µM (inactive) |  | > 100 µM (inactive) | > 100 µM (inactive) | > 100 µM (inactive) | > 100 µM (inactive) | > 100 µM (inactive) | > 100 µM (inactive) | > 100 µM (inactive) | 
CN(C)CC/C(=N\Nc1ccc(Cl)cc1)c1ccccc1 | 1.75 µM (inactive) |  | 1.28 µM (inactive) | 1.28 µM (inactive) | 0.256 µM (active) | 1.98 µM (inactive) | 1.1 µM (active) | 1.24 µM (inactive) | 2.24 µM (inactive) | 0.566 µM (active) | 1.92 µM (inactive) | 1.52 µM (inactive) | 1.58 µM (inactive) | 0.431 µM (active) | 0.593 µM (active) | 1.64 µM (inactive) | 0.25 µM (active) | 0.513 µM (active)
CC(=O)OCC1OC(n2cc(F)c(=O)[nH]c2=O)C(NC(=O)N(CCCl)N=O)C(OC(C)=O)C1OC(C)=O (stereo not given) | > 100 µM (inactive) |  | > 100 µM (inactive) | > 100 µM (inactive) | 43.3 µM (inactive) | > 100 µM (inactive) | 18.7 µM (inactive) |  | > 100 µM (inactive) | 17.3 µM (inactive) | 29.3 µM (inactive) | > 100 µM (inactive) | > 100 µM (inactive) | > 100 µM (inactive) | > 100 µM (inactive) | > 100 µM (inactive) | > 100 µM (inactive) | 88.9 µM (inactive)
CCN(CC)C(=O)COc1ccc(Br)cc1Br | > 100 µM (inactive) | > 100 µM (inactive) | > 100 µM (inactive) |  | > 100 µM (inactive) | > 100 µM (inactive) | > 100 µM (inactive) | > 100 µM (inactive) |  | > 100 µM (inactive) | > 100 µM (inactive) | > 100 µM (inactive) | > 100 µM (inactive) | > 100 µM (inactive) | > 100 µM (inactive) | > 100 µM (inactive) | > 100 µM (inactive) | > 100 µM (inactive)
CC(=O)Nc1cc2c(s1)CCC1CC(=O)NN=C21 (stereo not given) | > 100 µM (inactive) |  | > 100 µM (inactive) | > 100 µM (inactive) | > 100 µM (inactive) | > 100 µM (inactive) | > 100 µM (inactive) | > 100 µM (inactive) | > 100 µM (inactive) | > 100 µM (inactive) | > 100 µM (inactive) | > 100 µM (inactive) | > 100 µM (inactive) | > 100 µM (inactive) | > 100 µM (inactive) |  | > 100 µM (inactive) | > 100 µM (inactive)
N#CCc1ccc(C(C#N)/C(CCCC(=O)Nc2cccc([N+](=O)[O-])c2)=N/NC(N)=S)cc1 (stereo not given) | > 100 µM (inactive) | > 100 µM (inactive) | > 100 µM (inactive) | > 100 µM (inactive) | 63.1 µM (inactive) | > 100 µM (inactive) | > 100 µM (inactive) | > 100 µM (inactive) |  | > 100 µM (inactive) | > 100 µM (inactive) | > 100 µM (inactive) | > 100 µM (inactive) | > 100 µM (inactive) | > 100 µM (inactive) | > 100 µM (inactive) | > 100 µM (inactive) | > 100 µM (inactive)
CCCn1c(SCC)c2cc3cc4ccccc4cc3cc2c1-c1nc(F)nc(F)n1 | > 100 µM (inactive) | > 100 µM (inactive) | > 100 µM (inactive) | > 100 µM (inactive) | > 100 µM (inactive) | > 100 µM (inactive) | > 100 µM (inactive) | > 100 µM (inactive) | > 100 µM (inactive) | > 100 µM (inactive) | > 100 µM (inactive) | > 100 µM (inactive) | > 100 µM (inactive) | > 100 µM (inactive) | > 100 µM (inactive) | > 100 µM (inactive) | > 100 µM (inactive) | 
CCCCN(CCCC)CC(C(C)=O)C(c1ccccc1)c1c(O)c2ccccc2oc1=O (stereo not given) | > 100 µM (inactive) | > 100 µM (inactive) | > 100 µM (inactive) | > 100 µM (inactive) | > 100 µM (inactive) | > 100 µM (inactive) | > 100 µM (inactive) | > 100 µM (inactive) | > 100 µM (inactive) | > 100 µM (inactive) | > 100 µM (inactive) | > 100 µM (inactive) | > 100 µM (inactive) | > 100 µM (inactive) | > 100 µM (inactive) | > 100 µM (inactive) |  | > 100 µM (inactive)
CS/C(=N/C#N)NCCc1c[nH]c2ccccc12 | > 100 µM (inactive) | > 100 µM (inactive) | 98.4 µM (inactive) | > 100 µM (inactive) | > 100 µM (inactive) |  | > 100 µM (inactive) | > 100 µM (inactive) | > 100 µM (inactive) | > 100 µM (inactive) | > 100 µM (inactive) | > 100 µM (inactive) | > 100 µM (inactive) | > 100 µM (inactive) | > 100 µM (inactive) | > 100 µM (inactive) | 49 µM (inactive) | > 100 µM (inactive)
CC(=O)c1cccc(N2COC(C)(C)c3nc4ccccc4n3C2)c1 | > 100 µM (inactive) | > 100 µM (inactive) | > 100 µM (inactive) | > 100 µM (inactive) | > 100 µM (inactive) | > 100 µM (inactive) | > 100 µM (inactive) |  | > 100 µM (inactive) | > 100 µM (inactive) | > 100 µM (inactive) | > 100 µM (inactive) | > 100 µM (inactive) | > 100 µM (inactive) | > 100 µM (inactive) | > 100 µM (inactive) | > 100 µM (inactive) | > 100 µM (inactive)
CC(C)(c1ccc(C=O)o1)c1ccc(C(C)(C)c2ccc(C=O)o2)o1 | > 100 µM (inactive) | > 100 µM (inactive) | > 100 µM (inactive) | > 100 µM (inactive) | > 100 µM (inactive) | > 100 µM (inactive) | > 100 µM (inactive) | > 100 µM (inactive) | > 100 µM (inactive) | > 100 µM (inactive) | > 100 µM (inactive) | > 100 µM (inactive) |  | > 100 µM (inactive) | > 100 µM (inactive) | > 100 µM (inactive) |  | > 100 µM (inactive)
CN(C)c1ccc(-c2nc(N)nc3c2CCCC3)cc1 | 42.5 µM (inactive) | 80 µM (inactive) |  | 64.4 µM (inactive) | 31.3 µM (inactive) | 46.1 µM (inactive) | 65.2 µM (inactive) | > 100 µM (inactive) | 74.5 µM (inactive) | 47.2 µM (inactive) | > 100 µM (inactive) | 61.8 µM (inactive) | 37.9 µM (inactive) | > 100 µM (inactive) | 49.1 µM (inactive) |  | 41.5 µM (inactive) | 53.7 µM (inactive)
CC(C)[C@@H](COC(C)(C)C)/N=C/N1CCc2c([nH]c3ccccc23)C1 | > 100 µM (inactive) | 80 µM (inactive) | > 100 µM (inactive) | > 100 µM (inactive) | > 100 µM (inactive) |  | > 100 µM (inactive) | > 100 µM (inactive) | > 100 µM (inactive) | > 100 µM (inactive) | > 100 µM (inactive) | > 100 µM (inactive) | > 100 µM (inactive) | > 100 µM (inactive) | > 100 µM (inactive) |  | 84.9 µM (inactive) | > 100 µM (inactive)
CC(=O)C1C(c2ccc(N(C)C)cc2)c2cc3c(cc2OC1(C)O)OCO3 (stereo not given) | 41.1 µM (inactive) |  | 23.2 µM (inactive) | 77.8 µM (inactive) | 42.1 µM (inactive) | 53 µM (inactive) | 34.4 µM (inactive) |  | 73.5 µM (inactive) |  |  | 57.4 µM (inactive) | 40.1 µM (inactive) | 40.2 µM (inactive) | 51.2 µM (inactive) | 51.8 µM (inactive) | 29.4 µM (inactive) | 52.7 µM (inactive)
